Source: patent US7348427B2, “Antipathogenic benzamide compounds” (Genesoft Pharmaceuticals, Inc., priority 2001, dated 2008)

Assays:
[1] = test system: Staphylococcus aureus (ATCC 13709, a methicillin sensitive strain (MSSA)); experiment: MIC, NCCLS broth microdilution assay; assay type: cell-based; conditions: E = S. aureus ATCC 13709
Summary of the method: (§1)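 NCCLS-standard broth microdilution gives the MIC values here. The antifungal determination used a clinical microbiology manual method instead.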

[2] = test system: Bacillus cereus (ATCC 11778); experiment: MIC, NCCLS broth microdilution assay; assay type: cell-based; conditions: A = B. cereus ATCC 11778
Summary of the method: as §1

[3] = test system: Staphylococcus aureus (ATCC 27660, a methicillin resistant strain (MRSA)); experiment: MIC, NCCLS broth microdilution assay; assay type: cell-based; conditions: F = S. aureus ATCC 27660
Summary of the method: as §1

[4] = test system: Staphylococcus epidermidis (ATCC 12228); experiment: MIC, NCCLS broth microdilution assay; assay type: cell-based; conditions: G = S. epidermidis ATCC 12228
Summary of the method: as §1

[5] = test system: Streptococcus pneumoniae (ATCC 51422, a penicillin resistant strain (PRSP)); experiment: MIC, NCCLS broth microdilution assay; assay type: cell-based; conditions: I = S. pneumoniae ATCC 51422
Summary of the method: as §1

[6] = test system: Enterococcus faecium (ATCC 51559, a vancomycin resistant strain (VRE)); experiment: MIC, NCCLS broth microdilution assay; assay type: cell-based; conditions: D = E. faecium ATCC 51559
Summary of the method: as §1

S. pneumoniae ATCC 49619 = experiment: MIC, NCCLS broth microdilution assay; assay type: cell-based, Streptococcus pneumoniae; conditions: H = S. pneumoniae ATCC 49619
Summary of the method: (§2)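 Broth microdilution per NCCLS M7-A4 (1997) guidelines; MIC recorded as minimal inhibitory concentration.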

[7] = test system: Candida albicans (ATCC 38247); experiment: Antifungal MIC assay; assay type: cell-based; conditions: B = C. albicans ATCC 38247
Summary of the method: as §1

E. faecalis ATCC 29212 = experiment: MIC, NCCLS broth microdilution assay; assay type: cell-based, Enterococcus faecalis; conditions: C = E. faecalis ATCC 29212
Summary of the method: as §2

| SMILES | Minimum Inhibitory Concentration (MIC) [1] | Minimum Inhibitory Concentration (MIC) [2] | Minimum Inhibitory Concentration (MIC) [3] | Minimum Inhibitory Concentration (MIC) [4] | Minimum Inhibitory Concentration (MIC) [5] | Minimum Inhibitory Concentration (MIC) [6] | Minimum Inhibitory Concentration (MIC) (S. pneumoniae ATCC 49619) | Minimum Inhibitory Concentration (MIC) [7] | Minimum Inhibitory Concentration (MIC) (E. faecalis ATCC 29212) |
| --- | --- | --- | --- | --- | --- | --- | --- | --- | --- |
| Cc1cc(NC(=O)c2cc(NC(=O)c3cc(NC(=O)c4ccc(Cl)cc4F)cn3C)cn2CCCN(C)C)sn1 [Compound D-12] | +++ (+++ = MIC ≦ 4) | +++ (+++ = MIC ≦ 4) | +++ (+++ = MIC ≦ 4) | +++ (+++ = MIC ≦ 4) | +++ (+++ = MIC ≦ 4) | ++ (++ = 4 < MIC < 12) | +++ (+++ = MIC ≦ 4) | +++ (+++ = MIC ≦ 4) | +++ (+++ = MIC ≦ 4) |
| CN(C)CCCn1cc(NC(=O)c2cc(NC(=O)c3cc(NC(=O)c4ccc(F)cc4F)cn3C)cn2C)cc1C(=O)NCCN1CCCCC1 [Compound D-2] | + (+ = 12 ≦ MIC ≦ 32) | +++ (+++ = MIC ≦ 4) | +++ (+++ = MIC ≦ 4) | +++ (+++ = MIC ≦ 4) | +++ (+++ = MIC ≦ 4) | +++ (+++ = MIC ≦ 4) | +++ (+++ = MIC ≦ 4) | + (+ = 12 ≦ MIC ≦ 32) | +++ (+++ = MIC ≦ 4) |
| Cn1cc(NC(=O)c2cc(NC(=O)c3cc(NC(=O)c4ccc(F)cc4F)cn3C)cn2C)cc1C(=O)NCCN1CCC(F)(F)CC1 [Compound B-27] | +++ (+++ = MIC ≦ 4) | +++ (+++ = MIC ≦ 4) | +++ (+++ = MIC ≦ 4) | +++ (+++ = MIC ≦ 4) | +++ (+++ = MIC ≦ 4) | +++ (+++ = MIC ≦ 4) | +++ (+++ = MIC ≦ 4) | >32 µg/mL | +++ (+++ = MIC ≦ 4) |
| Cn1cc(NC(=O)c2cc(NC(=O)c3cc(NC(=O)c4ccc(F)cc4F)cn3C)cn2C)cc1C(=O)NCCN1CCSCC1 [Compound B-3] | +++ (+++ = MIC ≦ 4) | +++ (+++ = MIC ≦ 4) | +++ (+++ = MIC ≦ 4) | +++ (+++ = MIC ≦ 4) | +++ (+++ = MIC ≦ 4) | + (+ = 12 ≦ MIC ≦ 32) | +++ (+++ = MIC ≦ 4) | >32 µg/mL | +++ (+++ = MIC ≦ 4) |
| Cc1cc(NC(=O)c2cc(NC(=O)c3cc(NC(=O)c4ccc(Cl)cc4F)c[nH]3)cn2CCN2CCOCC2)sn1 [Compound D-9] | +++ (+++ = MIC ≦ 4) | +++ (+++ = MIC ≦ 4) | +++ (+++ = MIC ≦ 4) | +++ (+++ = MIC ≦ 4) | +++ (+++ = MIC ≦ 4) | +++ (+++ = MIC ≦ 4) | +++ (+++ = MIC ≦ 4) | >32 µg/mL | +++ (+++ = MIC ≦ 4) |
| Cn1cc(NC(=O)c2cc(NC(=O)c3cc(NC(=O)c4ccc(F)cc4F)cn3C)cn2C)cc1C(=O)NCCN1CCOCC1 [Compound B-1] | +++ (+++ = MIC ≦ 4) | +++ (+++ = MIC ≦ 4) | +++ (+++ = MIC ≦ 4) | +++ (+++ = MIC ≦ 4) | +++ (+++ = MIC ≦ 4) | +++ (+++ = MIC ≦ 4) | +++ (+++ = MIC ≦ 4) | >32 µg/mL | +++ (+++ = MIC ≦ 4) |
| Cc1cc(NC(=O)c2cc(NC(=O)c3cc(NC(=O)c4ccc(Cl)cc4F)cn3C)cn2CCN2CCOCC2)sn1 [Compound D-8] | +++ (+++ = MIC ≦ 4) | +++ (+++ = MIC ≦ 4) | +++ (+++ = MIC ≦ 4) | +++ (+++ = MIC ≦ 4) | +++ (+++ = MIC ≦ 4) | +++ (+++ = MIC ≦ 4) | +++ (+++ = MIC ≦ 4) | >32 µg/mL | +++ (+++ = MIC ≦ 4) |
